Measurements published in US11840686B2, “Modulation of prekallikrein (PKK) expression” (Ionis Pharmaceuticals, Inc., priority 2013, dated 2023).
Strand notation (5' to 3'): a small letter for the sugar, then the base; units joined by * are phosphorothioate-linked, units joined directly phosphodiester-linked; [ ] holds rarer units or linkages, { } end groups; capitals alone tell only the bases. e = 2'-O-(2-methoxyethyl) (MOE); k = constrained ethyl (cEt); [5mC] = 5-methylcytosine; d = 2'-deoxy (DNA)

system: human PKK mRNA; assay: Antisense inhibition of human PKK mRNA in HepaRG cells, 1,000 nM, MOE/deoxy/cEt oligonucleotides (Example 3); assay type: cell-based; conditions: HepaRG cells, 1,000 nM antisense oligonucleotide, Table 29
How it was run: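 HepaRG cells at 20,000 per well electroporated with 1,000 nM 16-mer MOE/cEt/deoxy gapmers (phosphorothioate, 5-methylcytosine). After about 24 h, PKK mRNA measured by qRT-PCR with primer probe set RTS3454, normalized to RIBOGREEN total RNA. Reported as percent inhibition versus untreated cells.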

Substance	% inhibition [%]
548606 (e[5mC]*eG*kG*dT*dG*dG*dT*dG*dG*dG*dA*dT*dT*kG*kG*eT; antisense) [compound 548606]	41
548607 (eT*e[5mC]*kG*dG*dT*dG*dG*dT*dG*dG*dG*dA*dT*kT*kG*eG; antisense) [compound 548607]	34
548608 (antisense eA*eT*k[5mC]*dG*dG*dT*dG*dG*dT*dG*dG*dG*dA*kT*kT*eG) [compound 548608]	25
548609 (antisense eG*eA*kT*d[5mC]*dG*dG*dT*dG*dG*dT*dG*dG*dG*kA*kT*eT) [compound 548609]	30
548610 (antisense eG*eG*kA*dT*d[5mC]*dG*dG*dT*dG*dG*dT*dG*dG*kG*kA*eT) [compound 548610]	2
548611 (antisense eG*e[5mC]*kG*dG*dG*dA*dT*d[5mC]*dG*dG*dT*dG*dG*kT*kG*eG) [compound 548611]	7
548612 (antisense eG*eG*k[5mC]*dG*dG*dG*dA*dT*d[5mC]*dG*dG*dT*dG*kG*kT*eG) [compound 548612]	20

same assay, conditions: PKK mRNA, HepaRG cells, 1,000 nM antisense oligonucleotide; Table 31

Substance	% inhibition [%]
548613 (antisense eT*eG*kG*d[5mC]*dG*dG*dG*dA*dT*d[5mC]*dG*dG*dT*kG*kG*eT) [compound 548613]	39
548614 (antisense eT*eG*kG*dT*dG*dG*d[5mC]*dG*dG*dG*dA*dT*d[5mC]*kG*kG*eT) [compound 548614]	0
548615 (antisense eT*eT*kG*dG*dT*dG*dG*d[5mC]*dG*dG*dG*dA*dT*k[5mC]*kG*eG) [compound 548615]	10
548616 (antisense eA*eT*kT*dG*dG*dT*dG*dG*d[5mC]*dG*dG*dG*dA*kT*k[5mC]*eG) [compound 548616]	35
548617 (antisense eG*eA*kT*dT*dG*dG*dT*dG*dG*d[5mC]*dG*dG*dG*kA*kT*e[5mC]) [compound 548617]	44
548618 (antisense eG*eT*kT*dG*dG*dT*dG*dG*d[5mC]*dG*dG*dG*dA*kT*k[5mC]*eG) [compound 548618]	18
548619 (antisense eG*eG*kT*dT*dG*dG*dT*dG*dG*d[5mC]*dG*dG*dG*kA*kT*e[5mC]) [compound 548619]	19
548620 (antisense eT*eG*kG*dT*dT*dG*dG*dT*dG*dG*d[5mC]*dG*dG*kG*kA*eT) [compound 548620]	24
548621 (antisense eG*eA*kA*d[5mC]*dA*d[5mC]*dA*dT*d[5mC]*dA*dG*dG*dG*kA*kT*eT) [compound 548621]	33
548622 (antisense eT*eT*kT*d[5mC]*dT*dA*dT*dG*dG*dG*d[5mC]*d[5mC]*dT*kG*kA*e[5mC]) [compound 548622]	0
548623 (antisense eG*e[5mC]*kT*dG*dT*d[5mC]*dA*d[5mC]*dT*dT*dA*dA*dG*k[5mC]*k[5mC]*eA) [compound 548623]	16
548624 (antisense eT*e[5mC]*kT*dA*dG*dG*dG*d[5mC]*d[5mC]*dA*d[5mC]*dA*d[5mC]*k[5mC]*kT*e[5mC]) [compound 548624]	24
548625 (antisense eG*eT*kT*d[5mC]*dT*dA*d[5mC]*dA*d[5mC]*dA*d[5mC]*dA*dG*kT*kA*e[5mC]) [compound 548625]	0
548626 (antisense eG*e[5mC]*kA*dG*dT*dA*dT*dG*dT*dT*d[5mC]*dA*dA*kT*k[5mC]*e[5mC]) [compound 548626]	36
548627 (antisense e[5mC]*e[5mC]*k[5mC]*dA*d[5mC]*dA*dT*dG*dT*dA*d[5mC]*d[5mC]*dA*k[5mC]*k[5mC]*eG) [compound 548627]	22
548628 (antisense eG*eT*kA*dT*dG*dG*d[5mC]*dA*dG*dA*dG*d[5mC]*d[5mC]*k[5mC]*k[5mC]*eT) [compound 548628]	9
548629 (antisense e[5mC]*e[5mC]*k[5mC]*dA*dT*d[5mC]*dT*dT*dG*dG*dG*dA*d[5mC]*kT*kT*eT) [compound 548629]	44
548630 (antisense eT*eG*kG*dT*d[5mC]*d[5mC]*d[5mC]*dA*dA*dA*dT*dT*dG*kG*kA*eG) [compound 548630]	33
548631 (antisense e[5mC]*eT*k[5mC]*dA*d[5mC]*dA*dA*dT*dA*d[5mC]*dT*dG*dA*kG*k[5mC]*e[5mC]) [compound 548631]	55
548632 (antisense eG*eG*kA*dG*dA*dT*dA*dT*d[5mC]*dA*dG*dG*dT*kG*k[5mC]*eA) [compound 548632]	45
548633 (antisense e[5mC]*eA*kA*dG*dG*d[5mC]*dA*dT*dG*dT*dG*dT*dG*k[5mC]*kA*e[5mC]) [compound 548633]	41
548634 (antisense eG*e[5mC]*k[5mC]*dT*dT*dA*dT*dT*d[5mC]*dT*dG*dT*dG*k[5mC]*kA*eA) [compound 548634]	0

Substance	% inhibition [%]
548635 (antisense eA*eG*kG*dT*dG*dT*dG*dG*d[5mC]*dG*d[5mC]*dG*d[5mC]*kG*k[5mC]*e[5mC]) [compound 548635]	18
548636 (antisense e[5mC]*eT*k[5mC]*dT*dA*dT*dA*d[5mC]*dA*dG*d[5mC]*dT*dG*kG*kG*e[5mC]) [compound 548636]	5
548637 (antisense eG*e[5mC]*kT*dG*dA*dT*d[5mC]*dT*dT*d[5mC]*dT*dA*dA*kT*kG*e[5mC]) [compound 548637]	38
548638 (antisense e[5mC]*e[5mC]*kT*d[5mC]*dA*dT*dT*dG*d[5mC]*dT*d[5mC]*d[5mC]*dA*k[5mC]*kT*eA) [compound 548638]	26
548639 (antisense eT*eG*kG*dG*dA*dA*dG*dA*dA*dA*d[5mC]*dT*dA*kG*k[5mC]*eA) [compound 548639]	10
548640 (antisense eG*eA*kA*dT*dG*dT*dT*dG*d[5mC]*dT*dG*dT*d[5mC]*k[5mC]*k[5mC]*eA) [compound 548640]	32
548641 (antisense eG*e[5mC]*kA*dT*d[5mC]*dA*dT*dG*d[5mC]*dT*dT*dA*d[5mC]*kT*kG*e[5mC]) [compound 548641]	23
548642 (antisense eG*e[5mC]*kG*dG*d[5mC]*dA*dG*dT*dA*dG*dT*dG*dA*kA*kT*e[5mC]) [compound 548642]	23
548643 (antisense e[5mC]*e[5mC]*kT*dA*d[5mC]*d[5mC]*dT*dA*dA*dT*dT*d[5mC]*d[5mC]*kT*k[5mC]*e[5mC]) [compound 548643]	0
548644 (antisense eA*eA*k[5mC]*dT*dG*dG*dG*d[5mC]*dA*dG*dT*d[5mC]*d[5mC]*kT*kT*e[5mC]) [compound 548644]	14
548645 (antisense e[5mC]*e[5mC]*kA*dG*d[5mC]*dG*d[5mC]*dA*dA*dT*dT*d[5mC]*dT*kG*k[5mC]*eT) [compound 548645]	8
548646 (antisense e[5mC]*eG*kT*dT*dT*d[5mC]*d[5mC]*d[5mC]*dT*d[5mC]*dA*dA*d[5mC]*kT*k[5mC]*e[5mC]) [compound 548646]	24
548647 (antisense e[5mC]*eA*k[5mC]*dG*dG*d[5mC]*dA*dA*dG*dT*d[5mC]*dG*d[5mC]*kG*kG*eG) [compound 548647]	39
548648 (antisense e[5mC]*eA*kG*dT*dT*dG*dT*dA*dT*d[5mC]*d[5mC]*d[5mC]*dT*k[5mC]*k[5mC]*e[5mC]) [compound 548648]	32
548649 (antisense eG*e[5mC]*k[5mC]*dT*d[5mC]*dT*d[5mC]*dA*dG*dA*d[5mC]*dG*dG*k[5mC]*kA*e[5mC]) [compound 548649]	0
548650 (antisense e[5mC]*eT*kG*dA*dT*d[5mC]*d[5mC]*d[5mC]*dA*d[5mC]*dT*dT*dG*k[5mC]*k[5mC]*e[5mC]) [compound 548650]	21
548651 (antisense eA*eG*kT*d[5mC]*dT*d[5mC]*dT*dT*dT*d[5mC]*d[5mC]*dT*dA*k[5mC]*k[5mC]*e[5mC]) [compound 548651]	61
548652 (antisense e[5mC]*e[5mC]*kA*d[5mC]*dG*dA*dT*dG*d[5mC]*dT*d[5mC]*dT*dG*kG*k[5mC]*e[5mC]) [compound 548652]	65
548653 (antisense eT*e[5mC]*kG*dG*d[5mC]*dT*d[5mC]*d[5mC]*dT*dG*dG*d[5mC]*dA*kG*k[5mC]*eA) [compound 548653]	46
548654 (antisense eA*e[5mC]*k[5mC]*dA*dT*dT*d[5mC]*d[5mC]*dT*dG*dA*d[5mC]*d[5mC]*kA*kT*eG) [compound 548654]	34
548656 (antisense eT*eT*kA*d[5mC]*dA*dA*d[5mC]*dA*dG*dA*d[5mC]*d[5mC]*d[5mC]*kA*kG*eG) [compound 548656]	35
548657 (antisense eA*eG*k[5mC]*dA*dG*dG*dG*dT*dA*dT*d[5mC]*dT*dT*k[5mC]*kA*e[5mC]) [compound 548657]	26
